In patent US12473344B2, “Chimeric antigen receptor polypeptides and methods of using same” (The Board of Trustees of the Leland Stanford Junior …, priority 2018, dated 2025):

What was measured:
[1] = test system: B7H3-expressing Nalm6 GFP; test: Cytokine in co-culture supernatant (IFN-γ ELISA); assay type: cell-based
Experimental: (§1) CAR T cells were co-cultured with indicated cancer cell lines, engineered to constitutively express green fluorescent protein, on day 10 post activation in 96-well plates at a ratio of 1:1 (50,000 cells each). Cancer cell fluorescence was monitored by time-lapse microscopy. Total integrated fluorescence intensity was calculated and plotted as a function of time. Co-culture supernatant was harvested after 24 hours of co-culture and analyzed for the presence of cytokine. Cytokine in culture supernatant was quantified using the Human IL-2 ELISA MAX™ and Human IFN-γ ELISA MAX™ Deluxe kits (BioLegend).

[2] = test system: B7H3 (low)-expressing Nalm6 GFP tumor cells; test: Co-culture killing assay, low antigen (tumor GFP fluorescence); assay type: cell-based; settings: 3 μM, various amounts of time, B7H3 (low) targets
Experimental: as §1

T cells = test: T cell aggregation during in vitro culture (microscope images); assay type: cell-based; settings: CAR-SMASh T cells incubated with inhibitor
[3] = test system: markers of T cell exhaustion; test: Flow cytometry of activation/exhaustion-associated markers on CAR-SMASh T cells; assay type: cell-based, human
Description: Asunaprevir (ASV), danoprevir (DPV), simeprevir (SPV), and grazoprevir (GPV) were purchased from ApexBio. Cell surface markers were stained with mouse monoclonal antibodies targeting PD-1 (PE-Cy7, eBioscience), LAG3 (PE, eBioscience), Tim-3 (BV 510, BioLegend), and B7-H3 (PE, R&D Systems). CAR molecules were stained with recombinant B7-H3 Fc (R&D Systems), protein L (Pierce Protein Biology), 1A7 anti-idiotype antibody, or FMC63 anti-idiotype antibody 136.20.1 conjugated in house using DyLight 650 Antibody Labeling Kit (Thermo Fisher). T cells were cultured in AIM V (Thermo Fisher) supplemented with 5% fetal bovine serum (Gibco), 100 U/mL rhIL-2 (PeproTech), 2 mM L-glutamine, 10 mM HEPES, 100 U/mL penicillin, and […] streptomycin (Invitrogen). Cancer cell lines were cultured in RPMI (Thermo Fisher) supplemented with 10% fetal bovine serum, 2 mM L-glutamine, 10 mM HEPES, 100 U/mL penicillin, and […] streptomycin.
(§2) Flow cytometry of samples was performed on an LSR Fortessa (BD Bioscience) and data were analyzed using FlowJo software. B7H3 CARs were detected using B7H3 Fc. GD2 and CD19 CARs were detected by 1A7 and FMC63 anti-idiotype antibody, respectively. CD 22 CARs were detected using biotinylated protein L and APC conjugated streptavidin. FACS plots were gated on live single T cells. Untransduced T cells (“Mock”) were used as controls.
(§3) CAR T cells were incubated in the indicated concentration of drug in T cell culture media (above) until analysis by FACS. Media was changed every 48-72 hours. Removal of drug was achieved by washing CAR T cells in T cell culture media 3 times.

HCV NS3 protease = settings: for CAR expression after removal of the protease inhibitor by washing / CAR expression after incubation with protease inhibitor: B7H3 CAR-SMASh
Experimental: as §2, §3

[4] = test system: B7H3-expressing Nalm6 GFP tumor cells; test: Co-culture killing assay (tumor GFP fluorescence); assay type: cell-based; settings: for cytotoxicity of B7H3 CAR-SMASh T cells incubated with drug prior to co-culture: 3 μM, various amounts of time (from 24 h)
Experimental: Cancer cell fluorescence was monitored by time-lapse microscopy. Total integrated fluorescence intensity was calculated and plotted as a function of time. […] Cytokine in culture supernatant was quantified using the Human IL-2 ELISA MAX™ and Human IFN-γ ELISA MAX™ Deluxe kits (BioLegend).

[5] = test system: Nalm6 leukemia cells expressing B7H3 and firefly luciferase; test: In vivo Nalm6 leukemia model, bioluminescence imaging; parameters: species or system NSG mice; settings: 50 mg/kg grazoprevir+25 mg/kg ritonavir three times per day by oral gavage
Experimental: NSG mice were infused with 10^6 Nalm6 leukemia cells expressing B7H3 and firefly luciferase. Four days later, mice were infused with 8×10^6 B7H3-BBz-SMASh CART cells or mock untransduced control cells. Mice that received B7H3-BBz-SMASh CAR T cells were either administered drug (50 mg/kg grazoprevir+25 mg/kg ritonavir) or vehicle (50% polyethylene glycol 300) three times per day by oral gavage. Bioluminescence imaging was used to follow the expansion of the firefly luciferase-expressing Nalm6 cells.
Assessed in this example was whether B7H3 CAR-nanoluciferase-SMASh CAR-T cell activity could be controlled in vivo against Nalm6 leukemia cells. NSG mice were infused with 10^6 Nalm6 leukemia cells expressing B7H3 antigen and firefly luciferase by tail vein injection. Four days later, mice were infused with 8×10^6 B7H3 CAR-nanoluciferase-SMASh CAR-T cells or mock un-transduced control T cells by tail vein injection. Mice in the “CAR OFF” group were administered 50 mg/kg grazoprevir+25 mg/kg ritonavir (a pharmacokinetic enhancer of grazoprevir) two to three times per day by oral gavage. Bioluminescence imaging was used to follow the expansion of the firefly luciferase-expressing Nalm6 cells.

[6] = test system: CAR expression on T cells in vivo; test: In vivo CAR expression by nanoluciferase imaging; settings: MED8A mice, 50 mg/kg grazoprevir+25 mg/kg ritonavir two to three times per day by oral gavage
Experimental: In a further study, real-time expression of a C-terminal nanoluciferase (nLuc) domain-containing CAR was monitored in vivo by nanoluciferase-based imaging.
Next, in vivo CAR expression in the mice described in FIG. 27 was assessed by nanoluciferase imaging. Mice were injected with 200 μL of Nano-Glo substrate that was diluted 40× in PBS. After a 6-minute incubation period, the mice were imaged on an IVIS Spectrum imager.

[7] = test system: GFP-labeled tumor cells expressing cognate antigen; test: Co-culture killing assay of several CAR-SMASh T cells in presence of drug; assay type: cell-based; settings: 3 μM asunaprevir
Experimental: as §1

[8] = loss of CAR expression and exhaustion markers (FIG. 6, FIG. 9)

## C=C[C@@H]1C[C@]1(NC(=O)[C@@H]1C[C@@H](Oc2ncc(OC)c3ccc(Cl)cc23)CN1C(=O)[C@@H](NC(=O)OC(C)(C)C)C(C)(C)C)C(=O)NS(=O)(=O)C1CC1 [asunaprevir, Asunaprevir]
[1]
  time to restoration of interferon production after removal: ≤ 24 h
[1]; drug-induced inhibition of CAR expression
  interferon production in response to antigen expressing targets: very low levels
[2]
  cytotoxicity of B7H3 CAR-SMASh T cells incubated with drug prior to co-culture: reduced cytotoxicity
T cells
  T cell aggregation during in vitro culture: resistant to aggregation
[3]; CAR-SMASh T cells, 3 μM
  expression of activation/exhaustion markers: reduces expression of activation/exhaustion markers
[3]; FIG. 9
  relationship between inhibitor and expression of CAR molecules and activation/exhaustion-associated markers: dose-dependent relationship
[3]; [8]
  concentration at which maximal effect was observed: 1 µM
  concentration at which near maximal effect was observed: 0.3 µM
HCV NS3 protease; 3 μM, various amounts of time
  CD19 CAR-SMASh expression after incubation with protease inhibitor: decrease in CD19 CAR-SMASh expression
  CD22 CAR-SMASh expression after incubation with protease inhibitor: decrease in CD22 CAR-SMASh expression
  GD2 CAR-SMASh expression after incubation with protease inhibitor: decrease in GD2 CAR-SMASh expression
  CAR expression after incubation with protease inhibitor: decrease in CAR expression
HCV NS3 protease
  CAR expression after removal of the protease inhibitor by washing: recovery of CAR expression
HCV NS3 protease; B7H3 SMASh-CAR T cells
  time to full CAR re-expression after removal of drug: ≤ 72 h
HCV NS3 protease; B7H3 SMASh-CAR T cells, 3 μM
  time at which reduction in CAR expression was maximal: 96 h
  time within which reduction in CAR expression occurred: ≤ 24 h
HCV NS3 protease; B7H3 SMASh-CAR T cells, ex vivo, 3 μM (FIG. 4)
  reduction of CAR expression: greater than 90%
HCV NS3 protease; B7H3 SMASh-CAR T cells, within 24 h of removal
  CAR re-expression after removal of drug: approximately 1.5 log
[4]
  cytotoxicity of B7H3 CAR-SMASh T cells incubated with drug prior to co-culture: reduced cytotoxicity
[4]; listed as asumaprevir
  cytotoxicity of B7H3 CAR-SMASh T cells incubated with drug prior to co-culture: significant reduction in killing
[4]; drug removed for various amounts of time
  cytotoxicity of B7H3 CAR-SMASh T cells after drug removal prior to co-culture: potent killing of tumor targets indistinguishable from constitutively expressed, non-regulated CAR T cells

## C=C[C@@H]1C[C@]1(NC(=O)[C@@H]1C[C@@H]2CN1C(=O)[C@H](C(C)(C)C)NC(=O)O[C@@H]1C[C@H]1CCCCCc1nc3ccc(OC)cc3nc1O2)C(=O)NS(=O)(=O)C1CC1.O [grazoprevir]
[5]
  cytotoxic capacity of B7H3-BBz-SMASh CAR T cells in vivo: dramatically reduces the cytotoxic capacity
[6]
  in vivo CAR expression (nanoluciferase imaging): diminished

## COc1ccc2c(O[C@@H]3C[C@H]4C(=O)N[C@]5(C(=O)NS(=O)(=O)C6CC6)C[C@H]5/C=C\CCCCN(C)C(=O)[C@@H]4C3)cc(-c3nc(C(C)C)cs3)nc2c1C [simeprevir]
HCV NS3 protease
  CAR expression after removal of the protease inhibitor by washing: recovery of CAR expression
HCV NS3 protease; 3 μM, various amounts of time
  CAR expression after incubation with protease inhibitor: decrease in CAR expression

## GD2 CAR-SMASh: GD2 scFv (14G2A) CAR with 4-1BB, CD3 zeta and C-terminal SMASh tag (SEQ ID NO: 11)
[7]
  cytotoxicity against target cells in the presence of drug (off state): significant cytotoxicity
